Measurements from patent US7629457B2, “Method for producing cytosine nucleoside compounds” (priority 2001, dated 2009).

Columns and labels:
[1] = system: cytosine deaminase (cod); test: cod (cytosine deaminase) residual activity of heat treated MT-10905 cell mass suspension after processing with methanol; type: biochemical, Escherichia coli; settings: cells heat treated 60° C. 20 hours = 100%
Protocol: The cell mass suspension of the strain MT-10905 obtained in Reference Example 2 was kept at 60° C. Cytosine deaminase will be expressed as cod hereafter. The activity of cod was analyzed after the cell mass suspension was added to 100 mM tris hydrochloride buffer (pH 8.0) and 20 mM cytosine, and then treated at 50° C. for 2 hours. The cod activity of the cell mass suspension that was not heat treated was set at 100% and the remaining activities were expressed with relative values. The results shown in Table 4 reveal that the activity of PNP was reduced minimally, but the activity of cod was eliminated nearly completely.
(§1) The cell mass suspension heat treated for 20 hours in Example 3 was processed with methanol in the same way as in Example 1. The individual activities of the cell mass suspension that was heat treated for 20 hours in Example 3 were set at 100% and the remaining activities were expressed with relative values. The results shown in Table 5 reveal that the activity of PNP was reduced minimally, but the activities of both cod and cdd were eliminated nearly completely.

[2] = biological target: T1, cytidine deaminase (cdd) (Escherichia coli, UniProt P0ABF6); test: cdd (cytidine deaminase) residual activity of MT-10905 cell mass suspension after processing with organic solvent; type: biochemical; settings: for cdd Activity: organic solvent 50%
T1 construct: endogenous in cells; host or cells: E. coli DH5alpha transformed with pUC-PNP73 (strain MT-10905), whole cell mass suspension
T1 sequence (P0ABF6 whole entry): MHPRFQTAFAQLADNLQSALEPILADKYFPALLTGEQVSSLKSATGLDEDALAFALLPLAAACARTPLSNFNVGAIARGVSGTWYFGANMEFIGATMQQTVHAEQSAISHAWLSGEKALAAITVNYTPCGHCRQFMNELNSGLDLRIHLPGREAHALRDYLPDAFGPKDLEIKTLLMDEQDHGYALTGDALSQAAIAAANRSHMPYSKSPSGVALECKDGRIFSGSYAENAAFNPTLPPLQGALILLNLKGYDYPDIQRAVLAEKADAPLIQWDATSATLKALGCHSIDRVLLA
Protocol: To the cell mass suspension of the strain MT-10905 obtained in Reference Example 2 was added a certain amount of methanol so as to attain any one of the methanol concentrations listed in Table 2, and then the suspension was kept at 30° C. for 1 hour. Cytidine deaminase will be expressed as cdd hereafter. The activity of cdd was analyzed after the cell mass suspension was added to 1.0 ml of the reaction solution consisting of 100 mM tris hydrochloride buffer (pH 8.0) and 20 mM cytidine, and then treated at 50° C. for 2 hours.
The cell mass suspension described above was kept at 30° C. for 1 hour without addition of methanol, and then the activity of cdd of the suspension was set at 100% of relative value.
as §1

[3] = biological target: T2, PNP (purine nucleoside phosphorylase) (Escherichia coli, UniProt P0ABP8); test: PNP residual activity of MT-10905 cell mass suspension after processing with organic solvent; type: biochemical; settings: for PNP Activity: organic solvent 50%
T2 construct: expressed in transfected cells; host or cells: E. coli DH5alpha transformed with plasmid pUC-PNP73 (strain MT-10905), whole cell mass suspension
T2 sequence (P0ABP8 2-239): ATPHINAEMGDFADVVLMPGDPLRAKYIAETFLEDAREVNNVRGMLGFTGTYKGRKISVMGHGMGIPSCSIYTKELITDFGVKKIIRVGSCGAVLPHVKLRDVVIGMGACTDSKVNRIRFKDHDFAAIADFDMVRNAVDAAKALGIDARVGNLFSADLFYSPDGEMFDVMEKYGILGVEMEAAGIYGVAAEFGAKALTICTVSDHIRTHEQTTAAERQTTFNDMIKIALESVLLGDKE
Protocol: The activity of PNP was analyzed after the cell mass suspension was added to 1.0 ml of the reaction solution consisting of 20 mM 2′-deoxyribose-1-phosphate di(monocyclohexylammonium) salt (produced by SIGMA), 5.4 mM adenine (produced by Wako Pure Chemicals, guaranteed grade) and 100 mM tris hydrochloride buffer (pH 8.0), and then treated at 50° C. or 15 minutes. The above reaction was conducted using such an amount of the cell mass as to produce not more than 2 mM deoxyadenosine. The cell mass suspension described above was kept at 30° C. for 1 hour without addition of methanol, and then the activity of PNP of the suspension was set at 100% of relative value. The results shown in Table 2 reveal that the activity of PNP was reduced minimally, but the activity of cdd was eliminated nearly completely.
as §1

[4] = MeOH 10%, 30° C. 1 hour, no methanol = 100%
[5] = MeOH 10%, cells heat treated 60° C. 20 hours = 100%
[6] = MeOH 25%, 30° C. 1 hour, no methanol = 100%
[7] = MeOH 25%, cells heat treated 60° C. 20 hours = 100%
[8] = MeOH 50%, 30° C. 1 hour, no methanol = 100%
[9] = MeOH 50%, cells heat treated 60° C. 20 hours = 100%
[10] = MeOH 70%, 30° C. 1 hour, no methanol = 100%
[11] = MeOH 70%, cells heat treated 60° C. 20 hours = 100%
[12] = MeOH 90%, 30° C. 1 hour, no methanol = 100%
[13] = MeOH 90%, cells heat treated 60° C. 20 hours = 100%

For `CO` [MeOH, methanol], the “cod Residual Activity (%)” value ([1]; MeOH 10%) was 90%, the “cod Residual Activity (%)” value ([1]; MeOH 25%) was 80% and the “cod Residual Activity (%)” value ([1]; MeOH 50%) was 50%. The “cod Residual Activity (%)” value ([1]; MeOH 70%) was 30%, the “cod Residual Activity (%)” value ([1]; MeOH 90%) was 10% and the “cdd Residual Activity (%)” value [2, 4] was 80%. The “cdd Residual Activity (%)” value [2, 5] was 80%, the “cdd Residual Activity (%)” value [2, 6] was 50% and the “cdd Residual Activity (%)” value [2, 7] was 50%. For the same compound, the “cdd Residual Activity (%)” value [2, 8] was 10%, the “cdd Residual Activity (%)” value [2, 9] was 10% and the “cdd Residual Activity (%)” value [2, 10] was 0.5%. For the same compound, the “cdd Residual Activity (%)” value [2, 11] was 0.5%, the “cdd Residual Activity (%)” value [2, 12] was 0.1% and the “cdd Residual Activity (%)” value [2, 13] was 0.1%. The “PNP Residual Activity (%)” value [3, 4] was 100%, the “PNP Residual Activity (%)” value [3, 5] was 100% and the “PNP Residual Activity (%)” value [3, 6] was 99%. The “PNP Residual Activity (%)” value [3, 7] was 98%, the “PNP Residual Activity (%)” value [3, 8] was 98% and the “PNP Residual Activity (%)” value [3, 9] was 96%. For the same compound, the “PNP Residual Activity (%)” value [3, 10] was 97%, the “PNP Residual Activity (%)” value [3, 11] was 96% and the “PNP Residual Activity (%)” value [3, 12] was 97%. The “PNP Residual Activity (%)” value [3, 13] was 96%.
With `C[S+](C)[O-]` [Dimethyl Sulfoxide] the “cdd Activity” value ([2]; 30° C. 1 hour) was 4% and the “PNP Activity” value ([3]; 30° C. 1 hour) was 96%.
`CN(C)C=O` [N,N-Dimethylformamide] was tested, and the “cdd Activity” value ([2]; 30° C. 1 hour) was 5% and the “PNP Activity” value ([3]; 30° C. 1 hour) was 97%.
With `CN1CCN(C)C1=O` [N,N-Dimethylimidazolidinone] the “cdd Activity” value ([2]; 30° C. 1 hour) was 4% and the “PNP Activity” value ([3]; 30° C. 1 hour) was 95%.
